ChEMBL document CHEMBL5131471, “Design, synthesis and mechanism studies of novel dual PARP1/BRD4 inhibitors against pancreatic cancer” (Eur J Med Chem, 2022)
Active and inactive are the calls of the source. No cut-off for these calls is given here.

Experiments:
[1] = test system: SW1990; assay: Induction of Rad51 accumulation in nucleus of human SW1990 cells at 6 uM measured after 4 days by Western blot analysis; assay type: functional, cell-based; details: time 4.0 day
[2] = test system: Mus musculus; assay: Upregulation of CDC25B expression in nude mouse xenografted with human SW1990 cells at 45 mg/kg, ip measured after 4 days by Western blot analysis; assay type: functional, organism-based; details: time 4.0 day
[3] = test system: SW1990; assay: Upregulation of FOXM1 expression in human SW1990 cells at 6 uM measured after 4 days by Western blot analysis; assay type: functional, cell-based; details: time 4.0 day
[4] = Toxicity in nude mouse xenografted with human SW1990 cells assessed as kidney damage at 45 mg/kg, ip administered for 28 days by H and E staining based fluorescence microscopic analysis; assay type: organism-based; details: in vivo, 672 h, time 28 day
[5] = test system: SW1990; assay: Effect on CCNB1 gene expression in human SW1990 cells at 6 uM by Q-PCR analysis; assay type: functional, cell-based
[6] = test system: SW1990; assay: Upregulation of BRD4 expression in human SW1990 cells at 6 uM measured after 4 days by Western blot analysis; assay type: functional, cell-based; details: time 4.0 day
[7] = test system: Mus musculus; assay: Inhibition of CCNB1 expression in nude mouse xenografted with human SW1990 cells at 30 mg/kg, ip measured after 4 days by Western blot analysis; assay type: functional, organism-based; details: time 4.0 day
[8] = test system: SW1990; assay: Effect on E2F2 gene expression in human SW1990 cells at 1 to 2 uM by Q-PCR analysis; assay type: functional, cell-based; details: dose 1-2 µM
[9] = test system: SW1990; assay: Antitumor activity against human SW1990 cells xenografted in nude mouse assessed as reduction in tumor size at 30 mg/kg, ip administered for 28 days and measured every 3 days by vernier caliper method; assay type: functional, organism-based; details: time 28.0 day
[10] = Toxicity in nude mouse xenografted with human SW1990 cells assessed as liver damage at 30 mg/kg, ip administered for 28 days by H and E staining based fluorescence microscopic analysis; assay type: organism-based; details: in vivo, 672 h, time 28 day
[11] = test system: Mus musculus; assay: Inhibition of CDK1 expression in nude mouse xenografted with human SW1990 cells at 30 mg/kg, ip measured after 4 days by Q-PCR analysis; assay type: functional, organism-based; details: time 4.0 day
[12] = test system: SW1990; assay: Effect on c-Myc gene expression in human SW1990 cells at 1 to 2 uM by Q-PCR analysis; assay type: functional, cell-based; details: dose 1-2 µM
[13] = test system: SW1990; assay: Induction of apoptosis in human SW1990 cells assessed as late apoptotic cells at 1 uM measured after 4 days by Annexin V-FITC and propidium iodide staining based flow cytometry (reference value: 7.23%); assay type: functional; details: time 4 day
[14] = test system: Mus musculus; assay: Inhibition of homologous recombinant repair in nude mouse xenografted with human SW1990 cells assessed as reversal of olaparib-induced FOXM1 expression at 30 mg/kg, ip measured after 4 days by Western blot analysis; assay type: functional, organism-based; details: time 4.0 day
[15] = test system: CAPAN-1; assay: Antiproliferative activity against human CAPAN-1 cells assessed as inhibition of cell growth measured after 4 days by MTT assay; assay type: functional, cell-based; details: CAPAN-1, 96 h
[16] = test system: SW1990; assay: Induction of cell cycle arrest in human SW1990 cells assessed as accumulation of cells at G0/G1 phase at 2 uM incubated for 4 days by propidium iodide staining based flow cytometry (reference value: 64.79%); assay type: functional; details: time 4 day
[17] = test system: SW1990; assay: Induction of cell cycle arrest in human SW1990 cells assessed as accumulation of cells at S phase at 2 uM incubated for 4 days by propidium iodide staining based flow cytometry (reference value: 29.32%); assay type: functional; details: time 4 day
[18] = Toxicity in nude mouse xenografted with human SW1990 cells assessed as lung damage at 30 mg/kg, ip administered for 28 days by H and E staining based fluorescence microscopic analysis; assay type: organism-based; details: in vivo, 672 h, time 28 day
[19] = test system: SW1990; assay: Inhibition of homologous recombinant repair in human SW1990 cells assessed as reversal of Olaparib-induced MDC1 expression at 1 to 2 uM after 4 days by Western blot analysis; assay type: functional, cell-based; details: dose 1-2 µM, time 4.0 day
[20] = Toxicity in nude mouse xenografted with human SW1990 cells assessed as kidney damage at 15 mg/kg, ip administered for 28 days in presence of 45 mg/kg Olaparib by H and E staining based fluorescence microscopic analysis; assay type: organism-based; details: in vivo, 672 h, time 28 day
[21] = Toxicity in nude mouse xenografted with human SW1990 cells assessed as lung damage at 15 mg/kg, ip administered for 28 days in presence of 45 mg/kg Olaparib by H and E staining based fluorescence microscopic analysis; assay type: organism-based; details: in vivo, 672 h, time 28 day
[22] = test system: SW1990; assay: Downregulation of Ki67 expression in human SW1990 cells at 15 mg/kg, ip in presence of 45 mg/kg, ip Olaparib measured after 28 days by immuno histochemical staining based fluorescence microscopic analysis; assay type: functional, organism-based; details: time 28.0 day
[23] = test system: SW1990; assay: Induction of apoptosis in human SW1990 cells assessed as early apoptotic cells at 1 uM measured after 4 days in presence of 3 uM Olaparib by Annexin V-FITC and propidium iodide staining based flow cytometry (reference value: 1.62%); assay type: functional; details: time 4 day
[24] = test system: SW1990; assay: Effect on TOPBP1 gene expression in human SW1990 cells at 4 uM by Q-PCR analysis; assay type: functional, cell-based
[25] = organism: Mus musculus; details: dose 15.0 mg/kg, route ip, time 28.0 day
[26] = test system: SW1990; assay: Induction of DNA damage in human SW1990 cells assessed as increase in tail DNA at 4 uM incubated for 4 days by comet assay; assay type: functional, cell-based; details: time 4.0 day
[27] = test system: SW1990; assay: Effect on E2F2 gene expression in human SW1990 cells at 1 uM in presence of Olaparib by Q-PCR analysis; assay type: functional, cell-based

**Q.** Which results are given for `O=C(c1cc(Cc2n[nH]c(=O)c3ccccc23)ccc1F)N1CCN(C(=O)C2CC2)CC1` [OLAPARIB]?
**A.** Activity [1]: Active; Activity [2]: Active; Activity [3]: Active; Activity [4]: Non-Toxic; Activity [5]: Active; Activity [6]: Active

**Q.** Which results are given for `Cc1noc(C)c1-c1ccc2c(c1)C(c1ccccc1)N(Cc1nc3c(C(N)=O)cccc3[nH]1)C(=O)N2C` (configuration not stated)?
**A.** inhibition [7]: Active; Activity [8]: Active; Activity [9]: Active; Activity [10]: Non-Toxic; inhibition [11]: Active; Activity [12]: Active; Activity [13]: 33.6%; inhibition [14]: Active; IC50 [15]: 1.71 µM; Activity [16]: 78.17%; Activity [17]: 9%; Activity [18]: Non-Toxic; inhibition [19]: Active

**Q.** With `Cc1sc2c(c1C)C(c1ccc(Cl)cc1)=N[C@@H](CC(=O)OC(C)(C)C)c1nnc(C)n1-2` as the compound, how does the Activity [20] read?
**A.** Non-Toxic

**Q.** And the Activity [21]?
**A.** Non-Toxic

**Q.** And the Activity [22]?
**A.** Active

**Q.** What about the Activity [23] of the same compound?
**A.** 3.07%

**Q.** And the Activity [24]?
**A.** Active

**Q.** What about the inhibition [25] of the same compound?
**A.** Active

**Q.** And the Activity [26]?
**A.** Active

**Q.** What about the Activity [27] of the same compound?
**A.** Active
